Test results as given in the NIST ThermoML archive (doi:10.1021/je060271a).
Numbers after ± are expanded uncertainties.

Conditions: 343.14 K, Liquid, Vibrating tube method

SMILES: CCCCCCC(=O)OCC(COC(=O)CCCCCC)(COC(=O)CCCCCC)COC(=O)CCCCCC [pentaerythritol tetraheptanoate]
- mass density (18157 kPa): 953.7 ± 1.2 kg/m3
- mass density (18178 kPa): 953.7 ± 1.2 kg/m3
- mass density (18297 kPa): 953.7 ± 1.2 kg/m3
- mass density (18319 kPa): 953.8 ± 1.2 kg/m3
- mass density (18346 kPa): 953.8 ± 1.2 kg/m3
- mass density (18368 kPa): 953.7 ± 1.2 kg/m3
- mass density (18394 kPa): 953.9 ± 1.2 kg/m3
- mass density (18417 kPa): 953.8 ± 1.2 kg/m3
- mass density (18440 kPa): 953.8 ± 1.2 kg/m3
- mass density (18467 kPa): 954 ± 1.2 kg/m3
- mass density (18490 kPa): 953.8 ± 1.2 kg/m3
- mass density (18513 kPa): 953.9 ± 1.2 kg/m3
- mass density (18736 kPa): 954 ± 1.2 kg/m3
- mass density (18759 kPa): 954.1 ± 1.2 kg/m3
- mass density (18788 kPa): 954.2 ± 1.2 kg/m3
- mass density (18811 kPa): 954.1 ± 1.2 kg/m3
- mass density (18834 kPa): 954.2 ± 1.2 kg/m3
- mass density (18863 kPa): 954.2 ± 1.2 kg/m3
- mass density (18886 kPa): 954.2 ± 1.2 kg/m3
- mass density (18911 kPa): 954.2 ± 1.2 kg/m3
- mass density (18939 kPa): 954.2 ± 1.2 kg/m3
- mass density (18963 kPa): 954.3 ± 1.2 kg/m3
- mass density (18988 kPa): 954.2 ± 1.2 kg/m3
- mass density (19016 kPa): 954.2 ± 1.2 kg/m3
- mass density (19305 kPa): 954.6 ± 1.2 kg/m3
- mass density (19330 kPa): 954.5 ± 1.2 kg/m3
- mass density (19356 kPa): 954.5 ± 1.2 kg/m3
- mass density (19386 kPa): 954.6 ± 1.2 kg/m3
- mass density (19411 kPa): 954.6 ± 1.2 kg/m3
- mass density (19743 kPa): 954.6 ± 1.2 kg/m3
- mass density (19769 kPa): 954.7 ± 1.2 kg/m3
- mass density (19796 kPa): 954.8 ± 1.2 kg/m3
- mass density (19828 kPa): 954.7 ± 1.2 kg/m3
- mass density (19854 kPa): 954.8 ± 1.2 kg/m3
- mass density (19881 kPa): 954.8 ± 1.2 kg/m3
- mass density (19913 kPa): 954.8 ± 1.2 kg/m3
- mass density (19941 kPa): 954.8 ± 1.2 kg/m3
- mass density (19968 kPa): 954.8 ± 1.2 kg/m3
- mass density (19994 kPa): 954.9 ± 1.2 kg/m3
- mass density (20028 kPa): 954.9 ± 1.2 kg/m3
- mass density (20054 kPa): 955 ± 1.2 kg/m3
- mass density (20087 kPa): 954.9 ± 1.2 kg/m3
- mass density (20115 kPa): 955 ± 1.2 kg/m3
- mass density (20142 kPa): 955 ± 1.2 kg/m3
- mass density (20169 kPa): 955.2 ± 1.2 kg/m3
- mass density (20203 kPa): 955.1 ± 1.2 kg/m3
- mass density (20230 kPa): 955.1 ± 1.2 kg/m3
- mass density (20258 kPa): 955.1 ± 1.2 kg/m3
- mass density (20441 kPa): 955.3 ± 1.2 kg/m3
- mass density (20475 kPa): 955.2 ± 1.2 kg/m3
- mass density (20533 kPa): 955.4 ± 1.2 kg/m3
- mass density (20567 kPa): 955.3 ± 1.2 kg/m3
- mass density (20596 kPa): 955.3 ± 1.2 kg/m3
- mass density (20625 kPa): 955.3 ± 1.2 kg/m3
- mass density (20660 kPa): 955.3 ± 1.2 kg/m3
- mass density (20722 kPa): 955.3 ± 1.2 kg/m3
- mass density (20752 kPa): 955.5 ± 1.2 kg/m3
- mass density (20817 kPa): 955.5 ± 1.2 kg/m3
- mass density (20847 kPa): 955.4 ± 1.2 kg/m3
- mass density (20877 kPa): 955.4 ± 1.2 kg/m3
- mass density (20907 kPa): 955.5 ± 1.2 kg/m3
- mass density (20942 kPa): 955.6 ± 1.2 kg/m3
- mass density (20972 kPa): 955.5 ± 1.2 kg/m3
- mass density (21003 kPa): 955.6 ± 1.2 kg/m3
- mass density (21039 kPa): 955.6 ± 1.2 kg/m3
- mass density (21133 kPa): 955.6 ± 1.2 kg/m3
- mass density (21170 kPa): 955.7 ± 1.2 kg/m3
- mass density (21200 kPa): 955.8 ± 1.2 kg/m3
- mass density (21230 kPa): 955.8 ± 1.2 kg/m3
- mass density (21267 kPa): 955.7 ± 1.2 kg/m3
- mass density (21298 kPa): 955.9 ± 1.2 kg/m3
- mass density (21330 kPa): 955.8 ± 1.2 kg/m3
- mass density (21368 kPa): 955.8 ± 1.2 kg/m3
- mass density (21399 kPa): 955.8 ± 1.2 kg/m3
- mass density (21431 kPa): 955.9 ± 1.2 kg/m3
- mass density (21462 kPa): 955.8 ± 1.2 kg/m3
- mass density (21500 kPa): 956 ± 1.2 kg/m3
- mass density (21533 kPa): 955.8 ± 1.2 kg/m3
- mass density (21565 kPa): 956 ± 1.2 kg/m3
- mass density (21597 kPa): 956 ± 1.2 kg/m3
- mass density (21636 kPa): 955.9 ± 1.2 kg/m3
- mass density (21669 kPa): 956 ± 1.2 kg/m3
- mass density (21702 kPa): 956 ± 1.2 kg/m3
- mass density (21740 kPa): 956 ± 1.2 kg/m3
- mass density (21773 kPa): 956 ± 1.2 kg/m3
- mass density (21806 kPa): 956.1 ± 1.2 kg/m3
- mass density (21839 kPa): 956.1 ± 1.2 kg/m3
- mass density (21878 kPa): 956.2 ± 1.2 kg/m3
- mass density (21912 kPa): 956.2 ± 1.2 kg/m3
- mass density (21946 kPa): 956.2 ± 1.2 kg/m3
- mass density (21986 kPa): 956.1 ± 1.2 kg/m3
- mass density (22020 kPa): 956.3 ± 1.2 kg/m3
- mass density (22053 kPa): 956.2 ± 1.2 kg/m3
- mass density (22086 kPa): 956.1 ± 1.2 kg/m3
- mass density (22236 kPa): 956.4 ± 1.2 kg/m3
- mass density (22270 kPa): 956.5 ± 1.2 kg/m3
- mass density (22311 kPa): 956.5 ± 1.2 kg/m3
- mass density (22345 kPa): 956.4 ± 1.2 kg/m3
- mass density (22380 kPa): 956.5 ± 1.2 kg/m3
- mass density (22421 kPa): 956.5 ± 1.2 kg/m3
- mass density (22456 kPa): 956.5 ± 1.2 kg/m3
- mass density (22491 kPa): 956.6 ± 1.2 kg/m3
- mass density (22526 kPa): 956.5 ± 1.2 kg/m3
- mass density (22569 kPa): 956.6 ± 1.2 kg/m3
- mass density (22604 kPa): 956.6 ± 1.2 kg/m3
- mass density (22640 kPa): 956.7 ± 1.2 kg/m3
- mass density (22675 kPa): 956.7 ± 1.2 kg/m3
- mass density (22776 kPa): 956.7 ± 1.2 kg/m3
- mass density (22834 kPa): 956.7 ± 1.2 kg/m3
- mass density (22870 kPa): 956.8 ± 1.2 kg/m3
- mass density (22914 kPa): 956.8 ± 1.2 kg/m3
- mass density (22950 kPa): 956.8 ± 1.2 kg/m3
